Source: patent US12473289B2, “Heterocyclic compounds as delta-5 desaturase inhibitors and methods of use” (Amgen Inc., priority 2019, dated 2025)
pIC50: −log10 of the molar value.

Target: Delta-5-Desaturase (D5D) (Homo sapiens (Human), UniProt O60427)
Test: In vitro measurement of Delta-5-Desaturase inhibitory activity using DGLA-CoA and Arachidonyl-CoA mass spectrometric assays
Type: biochemical
Conditions: membrane preparations of D5D-overexpressing HEK293 6E cells; averaged over at least two independent runs
Summary of the method: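 DGLA-CoA and arachidonyl-CoA were read by RapidFire SPE triple-quad MS (negative mode, MRM) after a 1 h ambient-temperature reaction quenched with acetonitrile. Enzyme was D5D-overexpressing HEK293 6E membranes at 10 μg/mL final; substrate solution held 0.01 mM DGLA plus NADH, ATP and CoA. Inhibition was referenced to DMSO and no-enzyme wells; 4PL IC50.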

Sequence of Delta-5-Desaturase (D5D) (O60427 whole entry, species assumed): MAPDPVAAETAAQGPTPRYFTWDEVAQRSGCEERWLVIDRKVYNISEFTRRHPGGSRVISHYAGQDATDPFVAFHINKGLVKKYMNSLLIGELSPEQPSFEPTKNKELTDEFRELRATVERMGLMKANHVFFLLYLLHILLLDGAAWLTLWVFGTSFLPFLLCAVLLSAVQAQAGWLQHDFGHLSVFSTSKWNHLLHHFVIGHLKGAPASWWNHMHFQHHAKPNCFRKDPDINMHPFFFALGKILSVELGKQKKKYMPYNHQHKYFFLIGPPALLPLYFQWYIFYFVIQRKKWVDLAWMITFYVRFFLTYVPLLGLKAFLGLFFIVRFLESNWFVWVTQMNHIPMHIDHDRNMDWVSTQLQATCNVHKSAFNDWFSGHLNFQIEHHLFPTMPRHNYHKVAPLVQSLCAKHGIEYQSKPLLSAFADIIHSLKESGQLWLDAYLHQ

Question: `CNc1ccn2c(=O)c(-c3ccc(OCC(F)(F)F)cc3)c(C(F)(F)F)nc2n1` [Example 14-1, 8-(Methylamino)-3-(4-(2,2,2-trifluoroethoxy)phenyl)-2-(trifluoromethyl)-4H-pyrimido[1,2-a]pyrimidin-4-one] was tested. Which pIC50 did it give?
Answer: 7.39

Question: `COc1cnn2c(=O)c(-c3cnn(CCC(F)(F)F)c3)c(C(F)(F)F)nc2c1` [Example 39-11, 8-methoxy-2-(trifluoromethyl)-3-[1-(3,3,3-trifluoropropyl)-1H-pyrazol-4-yl]-4H-pyrimido[1,2-b]pyridazin-4-one] was tested. Which pIC50 did it give?
Answer: 8.16

Question: `CCCc1ccc(-c2c(C(F)(F)F)nc3cc(OC)ccn3c2=O)cn1` [Example 7-6, 8-methoxy-3-(6-propyl-3-pyridinyl)-2-(trifluoromethyl)-4H-pyrido[1,2-a]pyrimidin-4-one] was tested. Which pIC50 did it give?
Answer: 6.52

Question: How did the pIC50 turn out when `Cc1ccc2nc(C(F)(F)F)c(-c3cnn(CC(F)(F)C(F)(F)F)c3)c(=O)n2n1` [Example 39-32, 7-methyl-3-[1-(2,2,3,3,3-pentafluoropropyl)-1H-pyrazol-4-yl]-2-(trifluoromethyl)-4H-pyrimido[1,2-b]pyridazin-4-one] was run?
Answer: 6.81

Question: With `COc1ccn2c(=O)c(-c3cc(CCC(F)(F)F)no3)c(C(F)(F)F)nc2c1` [Example 55, 8-Methoxy-2-(trifluoromethyl)-3-[3-(3,3,3-trifluoropropyl)-1,2-oxazol-5-yl]-4H-pyrido[1,2-a]pyrimidin-4-one] as the compound, how does the pIC50 read?
Answer: 8.06

Question: With `O=c1c(-c2cnn(CC(F)(F)C(F)(F)F)c2)c(C(F)(F)F)nc2ccc(F)cn12` [Example 39-23, 7-fluoro-3-[1-(2,2,3,3,3-pentafluoropropyl)-1H-pyrazol-4-yl]-2-(trifluoromethyl)-4H-pyrido[1,2-a]pyrimidin-4-one] as the compound, how does the pIC50 read?
Answer: 8.68

Question: How did the pIC50 turn out when `Cc1cc2nc(C(F)(F)F)c(-c3cnn(CC(F)(F)C(F)(F)F)c3)c(=O)n2nc1C` [Example 39-46, 7,8-dimethyl-3-[1-(2,2,3,3,3-pentafluoropropyl)-1H-pyrazol-4-yl]-2-(trifluoromethyl)-4H-pyrimido[1,2-b]pyridazin-4-one] was run?
Answer: 5.17

Question: `C[C@H](O)c1ccn2c(=O)c(-c3cnn(CC(F)(F)C(F)(F)F)c3)c(C(F)(F)F)nc2c1` [Example 31-2, 8-((1S)-1-hydroxyethyl)-3-(1-(2,2,3,3,3-pentafluoropropyl)-1H-pyrazol-4-yl)-2-(trifluoromethyl)-4H-pyrido[1,2-a]pyrimidin-4-one] was tested. Which pIC50 did it give?
Answer: 6.80

Question: `CCc1nc2cc(OC)ccn2c(=O)c1-c1ccc(OCC(F)(F)F)nc1` [Example 1-60, 2-ethyl-8-methoxy-3-(6-(2,2,2-trifluoroethoxy)-3-pyridinyl)-4H-pyrido[1,2-a]pyrimidin-4-one] was tested. Which pIC50 did it give?
Answer: 7.42

Question: `COc1ccn2c(=O)c(-c3cnn(CC4COC4)c3)c(C(F)(F)F)nc2c1` [Example 39-54, 8-methoxy-3-{1-[(oxetan-3-yl)methyl]-1H-pyrazol-4-yl}-2-(trifluoromethyl)-4H-pyrido[1,2-a]pyrimidin-4-one] was tested. Which pIC50 did it give?
Answer: 6.68

Question: How did the pIC50 turn out when `O=c1c(-c2cnn(CC(F)(F)C(F)(F)F)c2)c(C(F)(F)F)nc2cnccn12` [Example 39-25, 3-[1-(2,2,3,3,3-pentafluoropropyl)-1H-pyrazol-4-yl]-2-(trifluoromethyl)-4H-pyrazino[1,2-a]pyrimidin-4-one] was run?
Answer: 8.43

Question: How did the pIC50 turn out when `COc1ccn2c(=O)c(-c3cnn(CCCC(F)(F)F)c3)c(C(F)F)nc2c1` [Example 1-16, 2-(difluoromethyl)-8-methoxy-3-(1-(4,4,4-trifluorobutyl)-1H-pyrazol-4-yl)-4H-pyrido[1,2-a]pyrimidin-4-one] was run?
Answer: 6.42

Question: With `COc1ccn2c(=O)c(-c3cc4ccccc4o3)c(C(F)(F)F)nc2c1` [Example 1-7, 3-(1-benzofuran-2-yl)-8-methoxy-2-(trifluoromethyl)-4H-pyrido[1,2-a]pyrimidin-4-one] as the compound, how does the pIC50 read?
Answer: 7.07

Question: How did the pIC50 turn out when `O=c1c(-c2cnn(-c3ccccc3)c2)c(C(F)(F)F)nc2ccccn12` [Example 1-43, 3-(1-phenyl-1H-pyrazol-4-yl)-2-(trifluoromethyl)-4H-pyrido[1,2-a]pyrimidin-4-one] was run?
Answer: 7.34

Question: With `Cc1cc2nc(C(F)(F)F)c(-c3ccc(OCC(F)(F)F)cc3)c(=O)n2cc1Cl` [Example 41-3, 7-chloro-8-methyl-3-[4-(2,2,2-trifluoroethoxy)phenyl]-2-(trifluoromethyl)-4H-pyrido[1,2-a]pyrimidin-4-one] as the compound, how does the pIC50 read?
Answer: 6.62

Question: `C[S@@+]([O-])c1ccn2c(=O)c(-c3ccc(OCC(F)(F)F)cc3)c(C(F)(F)F)nc2c1` [Example 15-2, 8-((R)-methylsulfinyl)-3-(4-(2,2,2-trifluoroethoxy)phenyl)-2-(trifluoromethyl)-4H-pyrido[1,2-a]pyrimidin-4-one] was tested. Which pIC50 did it give?
Answer: 6.25

Question: With `COc1ccn2c(=O)c(-c3cnc(OCC(F)(F)F)c(F)c3)c(C(F)(F)F)nc2c1` [Example 7-3, 3-(5-fluoro-6-(2,2,2-trifluoroethoxy)-3-pyridinyl)-8-methoxy-2-(trifluoromethyl)-4H-pyrido[1,2-a]pyrimidin-4-one] as the compound, how does the pIC50 read?
Answer: 5.39

Question: How did the pIC50 turn out when `COc1ccn2c(=O)c(-c3ccc(OCCF)cc3)c(C(F)(F)F)nc2c1` [Example 1-11, 3-(4-(2-fluoroethoxy)phenyl)-8-methoxy-2-(trifluoromethyl)-4H-pyrido[1,2-a]pyrimidin-4-one] was run?
Answer: 7.58

Question: With `O=c1c(-c2cnn(-c3ccc(F)cc3)c2)c(C(F)(F)F)nc2ccccn12` [Example 1-46, 3-(1-(4-fluorophenyl)-1H-pyrazol-4-yl)-2-(trifluoromethyl)-4H-pyrido[1,2-a]pyrimidin-4-one] as the compound, how does the pIC50 read?
Answer: 7.44

Question: `O=c1c(-c2cnn(CCC(F)(F)F)c2)c(C(F)(F)F)nc2ccc(C3CC3)cn12` [Example 39-22, 7-cyclopropyl-2-(trifluoromethyl)-3-[1-(3,3,3-trifluoropropyl)-1H-pyrazol-4-yl]-4H-pyrido[1,2-a]pyrimidin-4-one] was tested. Which pIC50 did it give?
Answer: 5.53

Question: With `COc1ccn2c(=O)c(-c3cnc(OCC(F)(F)F)nc3)c(C(F)(F)F)nc2n1` [Example 39-13, 8-methoxy-3-[2-(2,2,2-trifluoroethoxy)pyrimidin-5-yl]-2-(trifluoromethyl)-4H-[1,3]diazino[1,2-a]pyrimidin-4-one] as the compound, how does the pIC50 read?
Answer: 6.61

Question: How did the pIC50 turn out when `COc1cc2nc(C(F)(F)F)c(-c3cnn(CC4CC4(F)F)c3)c(=O)n2cc1F` (racemic) [Example 39-59, 3-{1-[(2,2-difluorocyclopropyl)methyl]-1H-pyrazol-4-yl}-7-fluoro-8-methoxy-2-(trifluoromethyl)-4H-pyrido[1,2-a]pyrimidin-4-one] was run?
Answer: 8.30

Question: With `Cc1cnn2c(=O)c(-c3cnc(OCC(F)(F)F)nc3)c(C(F)(F)F)nc2c1` [Example 39-48, 8-methyl-3-[2-(2,2,2-trifluoroethoxy)pyrimidin-5-yl]-2-(trifluoromethyl)-4H-pyrimido[1,2-b]pyridazin-4-one] as the compound, how does the pIC50 read?
Answer: 6.29

Question: How did the pIC50 turn out when `N#CCc1ccn2c(=O)c(-c3cnn(CC(F)(F)C(F)(F)F)c3)c(C(F)(F)F)nc2c1` [Example 16-1, (4-Oxo-3-(1-(2,2,3,3,3-pentafluoropropyl)-1H-pyrazol-4-yl)-2-(trifluoromethyl)-4H-pyrido[1,2-a]pyrimidin-8-yl)acetonitrile] was run?
Answer: 7.28

Question: `C[C@@H](O)c1ccn2c(=O)c(-c3ccc(OCC(F)(F)F)cc3)c(C(F)(F)F)nc2c1` [Example 30-2, 8-((1R)-1-hydroxyethyl)-3-(4-(2,2,2-trifluoroethoxy)phenyl)-2-(trifluoromethyl)-4H-pyrido[1,2-a]pyrimidin-4-one] was tested. Which pIC50 did it give?
Answer: 6.95
